Assay results as given in patent US20130053381A1, “2,4-DIOXO-1,4-DIHYDRO-2H-QUINAZOLIN-3-YL-SULFONAMIDE DERIVATIVES” (NOVARTIS AG, priority 2010, published 2013).

These molecules were tested on OF1 mice (assay: Maximal electroshock test (MES Test)). Conditions: Mus musculus, po; 50 mg/kg, p.o., pre-treatment time −1 h; read-out: %-Protection.
Type: in vivo
Method in brief: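 Compound given p.o. (typically 50 mg/kg) 1 h before tonic-clonic convulsions were induced via temporal electrodes (50 Hz, 18 mA, 0.2 s); seizure lasting 3 s or less counted as protection. Read-out is percent protected of five mice per condition; ED50 calculated, blood exposure sampled after shock.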

Structure (SMILES) | responders at 50 mg/kg
CCC(OC)c1cc2c(=O)n(N(C(=O)C(C)C)S(C)(=O)=O)c(=O)[nH]c2cc1C(F)(F)F (stereo not drawn) [Example 11.06, N-Isobutyryl-N-[6-(1-methoxy-propyl)-2,4-dioxo-7-trifluoromethyl-1,4-dihydro-2H-quinazolin-3-yl]-methanesulfonamide] | 100%
CCCC(=O)N(n1c(=O)[nH]c2cc(C(F)(F)F)c(C(CC)OC)cc2c1=O)S(C)(=O)=O (stereo not drawn) [Example 11.07, N-Butyryl-N-[6-(1-methoxy-propyl)-2,4-dioxo-7-trifluoromethyl-1,4-dihydro-2H-quinazolin-3-yl]-methanesulfonamide] | 100%
CCC(OC)c1cc2c(=O)n(N(C(C)=O)S(C)(=O)=O)c(=O)[nH]c2cc1C(F)(F)F (stereo not drawn) [Example 11.08, N-Acetyl-N-[6-(1-methoxy-propyl)-2,4-dioxo-7-trifluoromethyl-1,4-dihydro-2H-quinazolin-3-yl]-methanesulfonamide] | 80%
CCC(OC)c1cc2c(=O)n(N(C(=O)OC)S(C)(=O)=O)c(=O)[nH]c2cc1C(F)(F)F (stereo not drawn) [Example 11.09, Methanesulfonyl-[6-(1-methoxy-propyl)-2,4-dioxo-7-trifluoromethyl-1,4-dihydro-2H-quinazolin-3-yl]-carbamic acid methyl ester] | 80%
CCC(OC)c1cc2c(=O)n(N(C(=O)OCC(C)C)S(C)(=O)=O)c(=O)[nH]c2cc1C(F)(F)F (stereo not drawn) [Example 11.10, Methanesulfonyl-[6-(1-methoxy-propyl)-2,4-dioxo-7-trifluoromethyl-1,4-dihydro-2H-quinazolin-3-yl]-carbamic acid isobutyl ester] | 100%
CCCCOC(=O)N(n1c(=O)[nH]c2cc(C(F)(F)F)c(C(CC)OC)cc2c1=O)S(C)(=O)=O (stereo not drawn) [Example 11.11, Methanesulfonyl-[6-(1-methoxy-propyl)-2,4-dioxo-7-trifluoromethyl-1,4-dihydro-2H-quinazolin-3-yl]-carbamic acid butyl ester] | 60%
CCCCCOC(=O)N(n1c(=O)[nH]c2cc(C(F)(F)F)c(C(CC)OC)cc2c1=O)S(C)(=O)=O (stereo not drawn) [Example 11.12, Methanesulfonyl-[6-(1-methoxy-propyl)-2,4-dioxo-7-trifluoromethyl-1,4-dihydro-2H-quinazolin-3-yl]-carbamic acid pentyl ester] | 20%
CCCCCCOC(=O)N(n1c(=O)[nH]c2cc(C(F)(F)F)c(C(CC)OC)cc2c1=O)S(C)(=O)=O (stereo not drawn) [Example 11.13, Methanesulfonyl-[6-(1-methoxy-propyl)-2,4-dioxo-7-trifluoromethyl-1,4-dihydro-2H-quinazolin-3-yl]-carbamic acid hexyl ester] | 60%
CCC(OC)c1cc2c(=O)n(N(C(=O)OC(C)C)S(C)(=O)=O)c(=O)[nH]c2cc1C(F)(F)F (stereo not drawn) [Example 11.14, Methanesulfonyl-[6-(1-methoxy-propyl)-2,4-dioxo-7-trifluoromethyl-1,4-dihydro-2H-quinazolin-3-yl]-carbamic acid isopropyl ester] | 60%
CCCCC(=O)N(n1c(=O)[nH]c2cc(C(F)(F)F)c(C(CC)OC)cc2c1=O)S(C)(=O)=O (stereo not drawn) [Example 11.15, N-[6-(1-methoxy-propyl)-2,4-dioxo-7-trifluoromethyl-1,4-dihydro-2H-quinazolin-3-yl]-N-pentanoyl-methanesulfonamide] | 100%
CCCCCC(=O)N(n1c(=O)[nH]c2cc(C(F)(F)F)c(C(O)CC)cc2c1=O)S(C)(=O)=O (stereo not drawn) [Example 12.01, N-Hexanoyl-N-[6-(1-hydroxy-propyl)-2,4-dioxo-7-trifluoromethyl-1,4-dihydro-2H-quinazolin-3-yl]-methanesulfonamide] | 40%
CCC(O)c1cc2c(=O)n(N(C(=O)OCCOC)S(C)(=O)=O)c(=O)[nH]c2cc1C(F)(F)F (stereo not drawn) [Example 12.02, Methanesulfonyl-[6-(1-hydroxy-propyl)-2,4-dioxo-7-trifluoromethyl-1,4-dihydro-2H-quinazolin-3-yl]-carbamic acid 2-methoxy-ethyl ester] | 20%
CCCC(=O)N(n1c(=O)[nH]c2cc(C(F)(F)F)c(C(O)CC)cc2c1=O)S(C)(=O)=O (stereo not drawn) [Example 12.03, N-Butyryl-N-[6-(1-hydroxy-propyl)-2,4-dioxo-7-trifluoromethyl-1,4-dihydro-2H-quinazolin-3-yl]-methanesulfonamide] | 40%
CCC(O)c1cc2c(=O)n(N(C(=O)C(C)C)S(C)(=O)=O)c(=O)[nH]c2cc1C(F)(F)F (stereo not drawn) [Example 12.04, N-[6-(1-Hydroxy-propyl)-2,4-dioxo-7-trifluoromethyl-1,4-dihydro-2H-quinazolin-3-yl]-N-isobutyryl-methanesulfonamide] | 40%
CCCCC(=O)N(n1c(=O)[nH]c2cc(C(F)(F)F)c(C(O)CC)cc2c1=O)S(C)(=O)=O (stereo not drawn) [Example 12.05, N-[6-(1-Hydroxy-propyl)-2,4-dioxo-7-trifluoromethyl-1,4-dihydro-2H-quinazolin-3-yl]-N-pentanoyl-methanesulfonamide] | 40%
CCc1cc2[nH]c(=O)n(N(C(=O)OCC(C)C)S(C)(=O)=O)c(=O)c2cc1-c1ccnn1CC [Example 13.01, Methanesulfonyl-[7-ethyl-6-(2-ethyl-2H-pyrazol-3-yl)-2,4-dioxo-1,4-dihydro-2H-quinazolin-3-yl]carbamic acid isobutyl ester] | 20%
CCCCCC(=O)N(n1c(=O)[nH]c2cc(CC)c(-c3ccnn3CC)cc2c1=O)S(C)(=O)=O [Example 13.02, N-[7-Ethyl-6-(2-ethyl-2H-pyrazol-3-yl)-2,4-dioxo-1,4-dihydro-2H-quinazolin-3-yl]-N-hexanoyl-methanesulfonamide] | 20%
CCC(=O)N(n1c(=O)[nH]c2cc(CC)c(-c3ccnn3CC)cc2c1=O)S(C)(=O)=O [Example 13.03, N-[7-Ethyl-6-(2-ethyl-2H-pyrazol-3-yl)-2,4-dioxo-1,4-dihydro-2H-quinazolin-3-yl]-N-propionyl-methanesulfonamide] | 20%
CCn1nccc1-c1cc2c(=O)n(NS(C)(=O)=O)c(=O)[nH]c2cc1C(F)F [Example 14.0, N-[7-Difluoromethyl-6-(2-ethyl-2H-pyrazol-3-yl)-2,4-dioxo-1,4-dihydro-2H-quinazolin-3-yl]-methanesulfonamide] | 0%
CCn1nccc1-c1cc2c(=O)n(N(C(=O)COC(C)=O)S(C)(=O)=O)c(=O)[nH]c2cc1C(F)F [Example 14.01, Acetic acid 2-{[7-difluoromethyl-6-(2-ethyl-2H-pyrazol-3-yl)-2,4-dioxo-1,4-dihydro-2H-quinazolin-3-yl]-methanesulfonyl-amino}-2-oxo-ethyl ester] | 20%
CCn1nccc1-c1cc2c(=O)n(NS(C)(=O)=O)c(=O)[nH]c2cc1C(F)(F)F [Example 15.0, N-[6-(2-Ethyl-2H-pyrazol-3-yl)-2,4-dioxo-7-trifluoromethyl-1,4-dihydro-2H-quinazolin-3-yl]-methanesulfonamide] | 0%
CCn1nccc1-c1cc2c(=O)n(N(C(=O)OC)S(C)(=O)=O)c(=O)[nH]c2cc1C(F)(F)F [Example 15.01, [6-(2-Ethyl-2H-pyrazol-3-yl)-2,4-dioxo-7-trifluoromethyl-1,4-dihydro-2H-quinazolin-3-yl]-methanesulfonyl-carbamic acid methyl ester] | 40%
CCC(=O)N(n1c(=O)[nH]c2cc(C(F)(F)F)c(-c3ccnn3CC)cc2c1=O)S(C)(=O)=O [Example 15.02, N-[6-(2-Ethyl-2H-pyrazol-3-yl)-2,4-dioxo-7-trifluoromethyl-1,4-dihydro-2H-quinazolin-3-yl]-N-propionyl-methanesulfonamide] | 20%
CCCCOC(=O)N(n1c(=O)[nH]c2cc(C(F)(F)F)c(-c3ccnn3CC)cc2c1=O)S(C)(=O)=O [Example 15.03, [6-(2-Ethyl-2H-pyrazol-3-yl)-2,4-dioxo-7-trifluoromethyl-1,4-dihydro-2H-quinazolin-3-yl]-methanesulfonyl-carbamic acid butyl ester] | 20%
CCn1nccc1-c1cc2c(=O)n(N(C(=O)C(C)(C)C)S(C)(=O)=O)c(=O)[nH]c2cc1C(F)(F)F [Example 15.04, N-(2,2-Dimethyl-propionyl)-N-[6-(2-ethyl-2H-pyrazol-3-yl)-2,4-dioxo-7-trifluoromethyl-1,4-dihydro-2H-quinazolin-3-yl]-methanesulfonamide] | 20%

Same assay, conditions: Mus musculus; dose of up to 50 mg/kg, p.o., 1 hour prior to induction of convulsions; read-out: %-Protection

Structure (SMILES) | responders at 50 mg/kg
CCc1cc2[nH]c(=O)n(N(C(=O)OCCOC)S(C)(=O)=O)c(=O)c2cc1-c1ccnn1CC [Methanesulfonyl-[7-ethyl-6-(2-ethyl-2H-pyrazol-3-yl)-2,4-dioxo-1,4-dihydro-2H-quinazolin-3-yl]carbamic acid 2-methoxy-ethyl ester] | 0%
CCOC(=O)N(n1c(=O)[nH]c2cc(CC)c(-c3ccnn3CC)cc2c1=O)S(C)(=O)=O [Methanesulfonyl-[7-ethyl-6-(2-ethyl-2H-pyrazol-3-yl)-2,4-dioxo-1,4-dihydro-2H-quinazolin-3-yl]carbamic acid ethyl ester] | 0%
CCc1cc2[nH]c(=O)n(N(C(=O)OC)S(C)(=O)=O)c(=O)c2cc1-c1ccnn1CC [Methanesulfonyl-[7-ethyl-6-(2-ethyl-2H-pyrazol-3-yl)-2,4-dioxo-1,4-dihydro-2H-quinazolin-3-yl]carbamic acid methyl ester] | 0%
CCCOC(=O)N(n1c(=O)[nH]c2cc(CC)c(-c3ccnn3CC)cc2c1=O)S(C)(=O)=O [Methanesulfonyl-[7-ethyl-6-(2-ethyl-2H-pyrazol-3-yl)-2,4-dioxo-1,4-dihydro-2H-quinazolin-3-yl]carbamic acid propyl ester] | 0%
CCCCCCOC(=O)N(n1c(=O)[nH]c2cc(CC)c(-c3ccnn3C)cc2c1=O)S(C)(=O)=O [Methanesulfonyl-[7-ethyl-6-(2-methyl-2H-pyrazol-3-yl)-2,4-dioxo-1,4-dihydro-2H-quinazolin-3-yl]carbamic acid hexyl ester] | 0%
